Assay results taken from patent publication US8697694B2, “Substituted pyridine and pyrimidine derivatives and their use in treating viral infections” (priority 2008, dated 2014).

What follows are compounds tested on HCV replicon cells (assay: Cell-based HCV replicon assay (replicon RNA level by real time PCR, Taqman)). Details: HCV replicon cells, replicon RNA level by real time PCR, harvested day 3; read-out: EC90 (μM) range.
Method: Assays Cell-Based HCV Replicon Assay
To measure cell-based anti-HCV activity of the compounds of the present invention, replicon cells were seeded at 5000 cells/well in 96-well collagen I-coated Nunc plates in the presence of the compound of the invention. Various concentrations of a compound of the invention, typically in 10 serial 2-fold dilutions, were added to the assay mixture, the starting concentration of the compound ranging from 25 μM to 1 μM. The final concentration of DMSO was 0.5%, fetal bovine serum was 10%, in the assay media. Cells were harvested on day 3 by the addition of 1× cell lysis buffer (Ambion cat #8721). The replicon RNA level was measured using real time PCR (Taqman assay). The amplicon was located in 5B. The PCR primers were: 5B.2F, ATGGACAGGCGCCCTGA (SEQ. ID NO. 1); 5B.2R, […] (SEQ. ID NO. 2); the probe sequence was FAM-labeled CACGCCATGCGCTGCGG (SEQ. ID NO. 3). GAPDH RNA was used as endogenous control and was amplified in the same reaction as NS5B (multiplex PCR) using primers and VIC-labeled probe recommended by the manufacturer (PE Applied Biosystem). The real-time RT-PCR reactions were run on ABI PRISM 7900HT Sequence Detection System using the following program: 48′C for 30 min, 95° C. for 10 min, 40 cycles of 95° C. for 15 sec, 60° C. for 1 min. The ΔCT values (CT5B-CTGAPDH) were plotted against the concentration of test compound and fitted to the sigmoid dose-response model using GraphPad PRISM software. EC50 was defined as the concentration of inhibitor necessary to achieve ΔCT=1 over the projected baseline; EC90 the concentration necessary to achieve ΔCT=3.2 over the baseline. Alternatively, to quantitate the absolute amount of replicon RNA, a standard curve was established by including serially diluted T7 transcripts of replicon RNA in the Taqman assay. All Taqman reagents were from PE Applied Biosystems. Such an assay procedure was described in detail in e.g. Malcolm et al., Antimicrobial Agents and Chemotherapy 50: 1013-1020 (2006).
HCV Replicon assay data for compounds of the invention that were tested was obtained using the above method. Calculated EC90 values are reported for each compound in Table I as a falling within the following ranges: […]

Row | Structure (SMILES) | EC90 [µM]
1 | Cc1nc(NCC(F)(F)F)nc(N[C@@H]2C[C@H](C(C)O)[C@@H](O)[C@H]2O)c1-c1nc2ccccc2s1 (single isomer, unassigned) [Example 1648] | 0.5 to 5

Same assay, conditions: Hepatitis C virus, 72 h, HCV replicon cells, harvested day 3, replicon RNA by real time PCR; given as number; read-out: EC90 (μM) range

Row | Structure (SMILES) | EC90 [µM]
2 | CCOc1cc2cc(-c3c(C)nc(NC)nc3N[C@@H]3C[C@H](CO)[C@@H](O)[C@H]3O)oc2c(C)n1 [Example 28] | 0.45
3 | Cc1nc(NCC(F)(F)F)nc(N[C@@H]2C[C@H](COC(=O)N3CCCC3)[C@@H](O)[C@H]2O)c1-c1nc2ccccc2s1 [Example 64] | 0.8

Same assay, conditions: Hepatitis C virus, 72 h, HCV replicon cells, harvested day 3, replicon RNA by real time PCR; reported as range class; read-out: EC90 (μM) range

Row | Structure (SMILES) | EC90 [µM]
4 | CCOc1ccc2nc(-c3c(Cl)nc(N)nc3N[C@@H]3C[C@H](CO)[C@@H](O)[C@H]3O)sc2c1 [Example 182] | < 0.5
5 | CCOc1cc2cc(-c3c(C)nc(Nc4ccccc4)nc3N[C@@H]3C[C@H](CO)[C@@H](O)[C@H]3O)oc2c(C)n1 [Example 33] | > 5
6 | Nc1nc(Cl)c(-c2nc3ccccc3s2)c(N[C@@H]2C[C@H](CO)[C@@H](O)[C@H]2O)n1 [Example 105] | < 0.5
7 | CN(C)c1nc(N[C@@H]2C[C@H](CO)[C@@H](O)[C@H]2O)c(-c2nc3ccccc3s2)c(-c2ccccc2)n1 [Example 414] | > 5
8 | Nc1nc(Cl)c(-c2cscn2)c(N[C@@H]2C[C@H](CO)[C@@H](O)[C@H]2O)n1 [Example 161] | > 5
9 | Nc1nc(Cl)c(-c2ccc(C=O)s2)c(N[C@@H]2C[C@H](CO)[C@@H](O)[C@H]2O)n1 [Example 155] | > 5

Same assay, conditions: Hepatitis C virus, 72 h, HCV replicon cells, harvested on day 3, replicon RNA by real time PCR; calculated EC90 reported as range class; read-out: EC90 (μM) range

Row | Structure (SMILES) | EC90 [µM]
10 | CO[C@H](C)CNc1nc(C)c(-c2nc3ccccc3s2)c(N[C@@H]2C[C@H](CO)[C@@H](O)[C@H]2O)n1 [Example 231] | < 0.5
11 | Cc1nc(NCCNC(=O)NC(C)(C)C)nc(N[C@@H]2C[C@H](CO)[C@H]3OC(C)(C)O[C@H]32)c1-c1nc2ccccc2s1 [Example 249] | > 5
12 | CCCCNc1nc(Cl)c(-c2nc3ccccc3s2)c(N[C@@H]2C[C@H](CO)[C@@H](O)[C@H]2O)n1 [Example 432] | < 0.5
13 | C[C@H](Nc1nc(Cl)c(-c2nc3ccccc3s2)c(N[C@@H]2C[C@H](CO)[C@@H](O)[C@H]2O)n1)C(F)(F)F [Example 131] | < 0.5
14 | COCc1cc2cc(-c3c(C)nc(NCc4nccs4)nc3N[C@@H]3C[C@H](CO)[C@@H](O)[C@H]3O)oc2cn1 [Example 340] | < 0.5
15 | CCc1cc2cc(-c3c(C)nc(NCc4ccccn4)nc3N[C@@H]3C[C@H](CO)[C@@H](O)[C@H]3O)oc2cn1 [Example 344] | < 0.5
16 | Cc1nc(NCc2cccnc2)nc(N[C@@H]2C[C@H](CO)[C@@H](O)[C@H]2O)c1-c1nc2ccccc2s1 [Example 466] | < 0.5
17 | CCCCCNc1nc(Cl)c(-c2cc3cc(C)nc(C)c3o2)c(N[C@@H]2C[C@H](CO)[C@@H](O)[C@H]2O)n1 [Example 450] | < 0.5
18 | Cc1nc(NCc2ccccc2F)nc(N[C@@H]2C[C@H](CO)[C@@H](O)[C@H]2O)c1-c1nc2ccccc2s1 [Example 233] | < 0.5
19 | COc1cc(CNc2nc(C)c(-c3nc4ccccc4s3)c(N[C@@H]3C[C@H](CO)[C@@H](O)[C@H]3O)n2)cc(OC)c1OC [Example 711] | < 0.5
20 | CC(C)Nc1nc(Cl)c(-c2nc3ccccc3s2)c(N[C@@H]2C[C@H](CO)[C@@H](O)[C@H]2O)n1 [Example 426] | < 0.5
21 | Cc1nc(NCc2cccs2)nc(N[C@@H]2CCC[C@H]2O)c1-c1nc2ccccc2s1 (racemic) [Example 333] | < 0.5
22 | CCC(C)(C)Nc1nc(C)c(-c2nc3ccccc3s2)c(N[C@@H]2C[C@H](CO)[C@@H](O)[C@H]2O)n1 [Example 513] | < 0.5
23 | CCc1cc2cc(-c3c(Cl)nc(NCCC(F)(F)F)nc3N[C@@H]3C[C@H](CO)[C@@H](O)[C@H]3O)oc2cn1 [Example 520] | < 0.5
24 | CC(=O)N1CCC(Nc2nc(Cl)c(-c3nc4ccccc4s3)c(N[C@@H]3C[C@H](CO)[C@@H](O)[C@H]3O)n2)CC1 [Example 507] | < 0.5
25 | CCc1cc2cc(-c3c(Cl)nc(NCC4CC4)nc3N[C@@H]3C[C@H](CO)[C@@H](O)[C@H]3O)oc2cn1 [Example 503] | < 0.5
26 | Cc1nc(NCc2ccccn2)nc(N[C@@H]2C[C@H](CO)[C@@H](O)[C@H]2O)c1-c1nc2ccccc2s1 [Example 465] | < 0.5

Same assay, conditions: Hepatitis C virus, 72 h, HCV replicon cells, replicon RNA level by real time PCR (Taqman), harvested on day 3; calculated EC90 reported as range class; read-out: EC90 (μM) range

Row | Structure (SMILES) | EC90 [µM]
27 | Cc1cc2sc(-c3c(C)nc(NCC(F)(F)F)nc3N[C@@H]3C[C@H](CO)[C@@H](O)[C@H]3O)nc2c(C)n1 [Example 1135] | < 0.5
28 | Cc1cc2sc(-c3c(C)nc(NCC4CC4)nc3N[C@@H]3C[C@H](CO)[C@@H](O)[C@H]3O)nc2c(C)n1 [Example 1134] | < 0.5
29 | Cc1nc(Nc2cccc(F)c2)nc(N[C@@H]2C[C@H](CO)[C@@H](O)[C@H]2O)c1-c1nc2ccccc2s1 [Example 1042] | > 5
30 | Cc1nc(Nc2ccncc2)nc(N[C@@H]2C[C@H](CO)[C@@H](O)[C@H]2O)c1-c1nc2ccccc2s1 [Example 1051] | 0.5 to 5
31 | CCOCCNc1nc(C)c(-c2nc3ccccc3o2)c(N[C@@H]2C[C@H](CO)[C@@H](O)[C@H]2O)n1 [Example 529] | < 0.5
32 | Cc1nc(N[C@H](C)C(C)(C)C)nc(N[C@@H]2C[C@H](CO)[C@@H](O)[C@H]2O)c1-c1nc2cnccc2s1 [Example 1308] | 0.5 to 5
33 | CCNC[C@H]1C[C@@H](Nc2nc(NCC(F)(F)F)nc(C)c2-c2nc3ccccc3s2)[C@H](O)[C@@H]1O [Example 1018] | 0.5 to 5
34 | Cc1cccc(Nc2nc(C)c(-c3nc4ccccc4s3)c(N[C@@H]3C[C@H](CO)[C@@H](O)[C@H]3O)n2)c1 [Example 1046] | 0.5 to 5
35 | Cc1nc(Nc2ccccc2)nc(N[C@@H]2C[C@H](CO)[C@@H](O)[C@H]2O)c1-c1nc2ccccc2s1 [Example 1007] | 0.5 to 5
36 | Cc1cc2nc(-c3c(C)nc(NCC(F)(F)F)nc3N[C@@H]3C[C@H](CO)[C@@H](O)[C@H]3O)sc2cc1C [Example 1061] | 0.5 to 5
37 | Cc1nc(NC(C)(C)c2ccccc2)nc(N[C@@H]2C[C@H](CO)[C@@H](O)[C@H]2O)c1-c1nc2ccccc2s1 [Example 1228] | 0.5 to 5
38 | COc1cc(COc2nc(C)c(-c3nc4ccccc4s3)c(N[C@@H]3C[C@H](CO)[C@@H](O)[C@H]3O)n2)cc(OC)c1 [Example 1210] | > 5
39 | CCc1nccc2sc(-c3c(C)nc(N[C@H](C)c4ccc(C)cc4)nc3N[C@@H]3C[C@H](CO)[C@@H](O)[C@H]3O)nc12 [Example 1335] | < 0.5
40 | Cc1nc(N(C)Cc2ccccc2)nc(N[C@@H]2C[C@H](CO)[C@H]3OC(C)(C)O[C@H]32)c1-c1nc2ccccc2s1 [Example 1115] | > 5

Same assay, conditions: Hepatitis C virus, 72 h, HCV replicon cells, replicon RNA level by real time PCR, harvested day 3; read-out: EC90 (μM) range

Row | Structure (SMILES) | EC90 [µM]
41 | CCc1nccc2sc(-c3c(C)nc(N[C@H](C)C4CC4)nc3N[C@@H]3C[C@H](CS(C)(=O)=O)[C@@H](O)[C@H]3O)nc12 [Example 1382] | < 0.5
42 | CCOCCNc1nc(C)c(-c2nc3c(C)nc(OCC)cc3s2)c(N[C@@H]2C[C@H](CO)[C@@H](O)[C@H]2O)n1 [Example 1376] | < 0.5
43 | Cc1ccccc1[C@@H](C)Nc1nc(C)c(-c2nc3c(C)nccc3s2)c(N[C@@H]2C[C@H](CO)[C@@H](O)[C@H]2O)n1 [Example 1527] | < 0.5
44 | Cc1nc(NCc2ccc(F)cc2F)nc(N[C@@H]2CC[C@@H](O)[C@@]2(C)O)c1-c1nc2cnccc2s1 [Example 1821] | < 0.5
45 | Cc1nc(NCc2cccs2)nc(N[C@@H]2C[C@H](CO)[C@@H](O)[C@H]2O)c1-c1cc2ccccc2s1 [Example 1602] | > 5
46 | CO[C@@H]1[C@H](O)[C@@H](CO)C[C@H]1Nc1nc(N[C@H](C)c2ccc(C)cc2)nc(C)c1-c1nc2cnccc2s1 [Example 1350] | < 0.5
47 | Cc1nc(NCC2CC2)nc(NC2CC(CO)(CO)C2)c1-c1nc2ccccc2s1 [Example 1610] | 0.5 to 5
48 | Cc1nc(NCC(F)(F)F)nc(N[C@@H]2C[C@H](CS(C)(=O)=O)[C@@H](O)[C@H]2O)c1-c1nc2cnccc2s1 [Example 1367] | < 0.5
49 | CCc1ccc([C@@H](C)Nc2nc(C)c(-c3nc4c(C)nccc4s3)c(N[C@@H]3C[C@H](CO)[C@@H](O)[C@H]3O)n2)cc1 [Example 1526] | < 0.5
50 | CCS(=O)(=O)NC[C@H]1C[C@@H](Nc2nc(NCC(F)(F)F)nc(C)c2-c2nc3ccccc3s2)[C@H](O)[C@@H]1O [Example 1521] | 0.5 to 5
51 | CC(=O)OC[C@H]1C[C@@H](Nc2nc(N)nc(C)c2-c2nc3ccccc3s2)[C@H](O)[C@@H]1O [Example 1915] | > 5
